One assay has as its target T1, JAK3 (Homo sapiens, UniProt P52333).
T1 sequence (P52333 1-1124): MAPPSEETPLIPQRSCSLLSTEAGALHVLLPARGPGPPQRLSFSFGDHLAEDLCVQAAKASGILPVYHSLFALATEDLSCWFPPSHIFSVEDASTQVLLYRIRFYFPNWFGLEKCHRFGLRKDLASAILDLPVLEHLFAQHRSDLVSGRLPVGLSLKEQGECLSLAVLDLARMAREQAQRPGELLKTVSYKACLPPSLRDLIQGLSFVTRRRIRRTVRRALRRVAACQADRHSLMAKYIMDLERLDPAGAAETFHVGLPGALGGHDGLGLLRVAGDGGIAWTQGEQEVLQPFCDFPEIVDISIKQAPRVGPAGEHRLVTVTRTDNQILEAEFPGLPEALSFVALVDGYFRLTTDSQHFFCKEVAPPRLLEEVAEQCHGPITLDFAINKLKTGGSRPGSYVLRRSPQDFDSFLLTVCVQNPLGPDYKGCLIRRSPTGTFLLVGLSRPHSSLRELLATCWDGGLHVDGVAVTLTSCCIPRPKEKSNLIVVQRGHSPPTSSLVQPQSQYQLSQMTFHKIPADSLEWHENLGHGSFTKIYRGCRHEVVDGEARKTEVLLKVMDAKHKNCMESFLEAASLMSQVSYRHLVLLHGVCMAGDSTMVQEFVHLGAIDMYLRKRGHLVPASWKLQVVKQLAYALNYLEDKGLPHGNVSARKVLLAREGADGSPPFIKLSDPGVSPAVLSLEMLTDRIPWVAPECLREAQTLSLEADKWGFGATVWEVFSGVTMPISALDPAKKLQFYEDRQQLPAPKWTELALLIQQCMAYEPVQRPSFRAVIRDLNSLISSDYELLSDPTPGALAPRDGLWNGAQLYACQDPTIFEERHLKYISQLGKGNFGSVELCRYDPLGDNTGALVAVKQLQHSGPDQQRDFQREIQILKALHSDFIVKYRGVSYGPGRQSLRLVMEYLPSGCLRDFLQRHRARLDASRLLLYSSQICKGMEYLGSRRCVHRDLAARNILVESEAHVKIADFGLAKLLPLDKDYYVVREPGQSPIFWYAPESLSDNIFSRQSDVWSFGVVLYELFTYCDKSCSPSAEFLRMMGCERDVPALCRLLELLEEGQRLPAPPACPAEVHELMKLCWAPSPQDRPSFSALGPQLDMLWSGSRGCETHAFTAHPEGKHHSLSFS
As to the kind of experiment: JAK3 Inhibition Assay. The settings on record: 1 μM poly(Glu)4Tyr, 5 μM ATP, 1 nM JAK3, 25° C.; read-out: JAK3 enzyme inhibition data (Ki). In kind it is biochemical. The method in brief:
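Radiometric JAK3 (1 nM) reaction with 5 μM [33P]ATP and 1 μM poly(Glu)4Tyr in HEPES pH 7.4 buffer, run for 20 min at 25 °C. Reactions were stopped with TCA and filter-captured, and 33P incorporation was counted; values reported as Ki.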

For the next assay, the target named is JAK-2 enzyme (Homo sapiens, UniProt O60674). As to the kind of experiment: JAK2 Inhibition Assay. It counts as biochemical. The settings on record: 15 μM poly(Glu)4Tyr, 12 μM ATP, 25° C. The procedure, abridged:
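JAK2 kinase in HEPES pH 7.4 buffer with MgCl2, DTT, NaCl and BSA; final 15 μM poly(Glu)4Tyr and 12 μM [33P]ATP. Enzyme added to start, 20 min at 25 °C, TCA stop, filter capture and scintillation count of 33P incorporation; Ki values.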

Molecules are shown by their SMILES. pKi: −log10 of the molar value. Where only a bound is given, the exact number is not on record here.

JAK-2 enzyme, sequence (O60674 whole entry, species assumed): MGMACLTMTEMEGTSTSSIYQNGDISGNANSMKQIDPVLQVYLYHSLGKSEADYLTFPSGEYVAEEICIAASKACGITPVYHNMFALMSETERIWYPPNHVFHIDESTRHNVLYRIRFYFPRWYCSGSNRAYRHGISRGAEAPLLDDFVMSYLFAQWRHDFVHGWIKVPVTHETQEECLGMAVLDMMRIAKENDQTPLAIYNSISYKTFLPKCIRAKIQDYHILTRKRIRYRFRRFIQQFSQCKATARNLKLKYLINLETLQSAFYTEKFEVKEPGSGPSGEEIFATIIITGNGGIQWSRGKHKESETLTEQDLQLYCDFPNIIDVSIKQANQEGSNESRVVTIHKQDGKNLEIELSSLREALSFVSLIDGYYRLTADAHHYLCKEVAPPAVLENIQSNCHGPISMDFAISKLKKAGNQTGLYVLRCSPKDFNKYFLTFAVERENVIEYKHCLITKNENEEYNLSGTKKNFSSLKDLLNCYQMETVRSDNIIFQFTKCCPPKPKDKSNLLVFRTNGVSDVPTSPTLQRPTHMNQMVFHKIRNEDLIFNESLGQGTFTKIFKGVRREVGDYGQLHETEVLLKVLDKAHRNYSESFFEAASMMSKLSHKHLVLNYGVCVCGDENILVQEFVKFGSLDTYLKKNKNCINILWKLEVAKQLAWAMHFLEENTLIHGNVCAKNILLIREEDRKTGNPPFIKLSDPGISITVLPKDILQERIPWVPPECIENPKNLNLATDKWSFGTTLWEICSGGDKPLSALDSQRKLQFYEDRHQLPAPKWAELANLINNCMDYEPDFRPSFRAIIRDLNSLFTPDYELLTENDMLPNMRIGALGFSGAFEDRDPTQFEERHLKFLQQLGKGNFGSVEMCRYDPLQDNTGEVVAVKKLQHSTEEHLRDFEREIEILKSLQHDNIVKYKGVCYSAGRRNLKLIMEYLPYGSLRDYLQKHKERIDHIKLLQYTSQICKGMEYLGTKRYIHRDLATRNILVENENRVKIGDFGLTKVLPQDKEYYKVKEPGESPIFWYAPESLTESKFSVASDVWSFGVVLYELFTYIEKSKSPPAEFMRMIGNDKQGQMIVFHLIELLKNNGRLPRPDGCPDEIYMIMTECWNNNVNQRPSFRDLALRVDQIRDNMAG

The pKi is −log10 of the Ki, conventionally taken in molar units. Consider `O=C(c1coc(-c2ncnc3[nH]ccc23)c1)N(CC1CC1)CC(F)(F)F` [Compound 195], for which the pKi on JAK3 was 6.30 to 7.00; on JAK-2 enzyme it was greater than 7.00.
The corresponding values for `C=CCCC(=O)Nc1nc(-c2ncnc3[nH]ccc23)cs1` [Compound 69] are greater than 7.00 and greater than 7.00.
The corresponding values for `CCCN(CC(F)(F)F)C(=O)c1ccc(-c2ncnc3[nH]ccc23)o1` [Compound 121] are greater than 7.00 and greater than 7.00.
The like results for `O=C(c1cc(-c2ncnc3[nH]ccc23)c[nH]1)N(CCC(F)(F)F)C1CCCC1` [Compound 188] were, in that order, 6.30 to 7.00 and greater than 7.00.
As for `Cc1c[nH]c2ncnc(-c3cnn(C)c3)c12` [Compound 160], the pKi on JAK3 and on JAK-2 enzyme was 6.30 to 7.00 each time.
Take `CCN(CCC#N)C(=O)c1cc(-c2ncnc3[nH]ccc23)cn1C` [Compound 237]: the pKi at JAK3 and on JAK-2 enzyme was greater than 7.00 each time.
`O=C(NC1CC1)c1cc(-c2ncnc3[nH]ccc23)c[nH]1` [Compound 12]: the pKi at JAK3 was 6.30 to 7.00; on JAK-2 enzyme, greater than 7.00.

These data come from patent publication US20090227607A1, “DEAZAPURINES USEFUL AS INHIBITORS OF JANUS KINASES” (priority 2006, published 2009).
